# Test results: the supplement of paper PMC9663587
# Legend:
# THZ1 [1] = compound: T1, CN(C)C/C=C/C(=O)Nc1ccc(C(=O)Nc2cccc(Nc3ncc(Cl)c(-c4c[nH]c5ccccc45)n3)c2)cc1 [THZ1]; experiment: increase in dead-cell fraction, 72 h; higher = more death;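 also: breast cancer cell lines in 384-well plates, stained with Hoechst plus LIVE/DEAD far red dye and imaged, cells above an LDR intensity threshold counted dead, Hoechst-negative corpses included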
# LEE011/Ribociclib = compound: CN(C)C(=O)c1cc2cnc(Nc3ccc(N4CCNCC4)cn3)nc2n1C1CCCC1 [LEE011/Ribociclib]; experiment: as above
# BSJ-03-123 = compound: CC(=O)c1c(C)c2cnc(Nc3ccc(N4CCN(CCOCCOCCOCCNC(=O)COc5cccc6c5C(=O)N(C5CCC(=O)NC5=O)C6=O)CC4)cn3)nc2n(C2CCCC2)c1=O [BSJ-03-123]; experiment: as above
# Flavopiridol [2] = compound: T2, CN1CC[C@H](c2c(O)cc(O)c3c(=O)cc(-c4ccccc4Cl)oc23)[C@H](O)C1 [Flavopiridol]; experiment: as above
# [3] = compound: CCc1cnn2c(NCc3ccc[n+]([O-])c3)cc(N3CCCC[C@H]3CCO)nc12; experiment: as above
# Neratinib/HKI272 = compound: CCOc1cc2ncc(C#N)c(Nc3ccc(OCc4ccccn4)c(Cl)c3)c2cc1NC(=O)/C=C/CN(C)C [Neratinib/HKI272]; experiment: as above
# [4] = compound: CCN1CCN(Cc2ccc(Nc3ncc(F)c(-c4cc(F)c5nc(C)n(C(C)C)c5c4)n3)nc2)CC1; experiment: as above
# [5] = compound: CC(=O)c1c(C)c2cnc(Nc3ccc(N4CCNCC4)cn3)nc2n(C2CCCC2)c1=O; experiment: as above
# THZ1 [6] = compound: T1, THZ1; experiment: GR value, 72 h; higher = faster growth (1 = untreated, <0 = killing);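 also: breast cancer and non-malignant breast epithelial lines, nine half-log doses, viable cells counted by Hoechst and LIVE/DEAD dye imaging versus time-zero plates and DMSO controls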
# Flavopiridol [7] = compound: T2, Flavopiridol; experiment: as above
# THZ531 = compound: CN(C)C/C=C/C(=O)Nc1ccc(C(=O)N2CCC[C@@H](Nc3ncc(Cl)c(-c4c[nH]c5ccccc45)n3)C2)cc1 [THZ531]; experiment: as above
# [8] = compound: CC(=O)c1c(C)c2cnc(Nc3ccc(N4CCNCC4)cn3)nc2n(C2CCCC2)c1=O; experiment: as above
cell line,measurement,setting,value
SKBR3,increase in dead-cell fraction,THZ1 [1]; 0.0001 µM,-0.0092
same,increase in dead-cell fraction,THZ1 [1]; 0.0003162 µM,0.0042
same,increase in dead-cell fraction,THZ1 [1]; 0.001 µM,0.0058
same,increase in dead-cell fraction,THZ1 [1]; 0.003162 µM,-0.0046
same,increase in dead-cell fraction,THZ1 [1]; 0.01 µM,-0.0004
same,increase in dead-cell fraction,THZ1 [1]; 0.03162 µM,0.0505
same,increase in dead-cell fraction,THZ1 [1]; 0.1 µM,0.237
same,increase in dead-cell fraction,THZ1 [1]; 0.3162 µM,0.33
same,increase in dead-cell fraction,THZ1 [1]; 1 µM,0.491
same,increase in dead-cell fraction,LEE011/Ribociclib; 0.001 µM,-0.0002
same,increase in dead-cell fraction,LEE011/Ribociclib; 0.003162 µM,-0.0049
same,increase in dead-cell fraction,LEE011/Ribociclib; 0.01 µM,0.0112
same,increase in dead-cell fraction,LEE011/Ribociclib; 0.03162 µM,0.0071
same,increase in dead-cell fraction,LEE011/Ribociclib; 0.1 µM,0.0105
same,increase in dead-cell fraction,LEE011/Ribociclib; 0.3162 µM,0.0092
same,increase in dead-cell fraction,LEE011/Ribociclib; 1 µM,0.0206
same,increase in dead-cell fraction,LEE011/Ribociclib; 3.162 µM,0.0182
same,increase in dead-cell fraction,LEE011/Ribociclib; 10 µM,0.0119
same,increase in dead-cell fraction,BSJ-03-123; 0.001 µM,-0.001
same,increase in dead-cell fraction,BSJ-03-123; 0.003162 µM,0.0008
same,increase in dead-cell fraction,BSJ-03-123; 0.01 µM,0.0041
same,increase in dead-cell fraction,BSJ-03-123; 0.03162 µM,-0.0049
same,increase in dead-cell fraction,BSJ-03-123; 0.1 µM,0.0076
same,increase in dead-cell fraction,BSJ-03-123; 0.3162 µM,-0.0004
same,increase in dead-cell fraction,BSJ-03-123; 1 µM,0.0088
same,increase in dead-cell fraction,BSJ-03-123; 3.162 µM,0.0136
same,increase in dead-cell fraction,BSJ-03-123; 10 µM,0.15
same,increase in dead-cell fraction,Flavopiridol [2]; 0.0001 µM,-0.0025
same,increase in dead-cell fraction,Flavopiridol [2]; 0.0003162 µM,-0.0004
same,increase in dead-cell fraction,Flavopiridol [2]; 0.001 µM,0.0053
same,increase in dead-cell fraction,Flavopiridol [2]; 0.003162 µM,-0.001
same,increase in dead-cell fraction,Flavopiridol [2]; 0.01 µM,-0.0038
same,increase in dead-cell fraction,Flavopiridol [2]; 0.03162 µM,-0.0082
same,increase in dead-cell fraction,Flavopiridol [2]; 0.1 µM,0.0051
same,increase in dead-cell fraction,Flavopiridol [2]; 0.3162 µM,0.0663
same,increase in dead-cell fraction,Flavopiridol [2]; 1 µM,0.417
same,increase in dead-cell fraction,[3]; 0.0001 µM,0.0102
same,increase in dead-cell fraction,[3]; 0.0003162 µM,0.0115
same,increase in dead-cell fraction,[3]; 0.001 µM,0.0049
same,increase in dead-cell fraction,[3]; 0.003162 µM,0.011
same,increase in dead-cell fraction,[3]; 0.01 µM,0.303
same,increase in dead-cell fraction,[3]; 0.03162 µM,0.574
same,increase in dead-cell fraction,[3]; 0.1 µM,0.595
same,increase in dead-cell fraction,[3]; 0.3162 µM,0.612
same,increase in dead-cell fraction,[3]; 1 µM,0.583
same,increase in dead-cell fraction,Neratinib/HKI272; 0.0003162 µM,0.0178
same,increase in dead-cell fraction,Neratinib/HKI272; 0.001 µM,0.0381
same,increase in dead-cell fraction,Neratinib/HKI272; 0.003162 µM,0.111
same,increase in dead-cell fraction,Neratinib/HKI272; 0.01 µM,0.156
same,increase in dead-cell fraction,Neratinib/HKI272; 0.03162 µM,0.222
same,increase in dead-cell fraction,Neratinib/HKI272; 0.1 µM,0.24
same,increase in dead-cell fraction,Neratinib/HKI272; 0.3162 µM,0.303
same,increase in dead-cell fraction,Neratinib/HKI272; 1 µM,0.362
same,increase in dead-cell fraction,Neratinib/HKI272; 3.162 µM,0.364
same,increase in dead-cell fraction,[4]; 0.001 µM,0.0059
same,increase in dead-cell fraction,[4]; 0.003162 µM,0.003
same,increase in dead-cell fraction,[4]; 0.01 µM,0.0233
same,increase in dead-cell fraction,[4]; 0.03162 µM,0.0346
same,increase in dead-cell fraction,[4]; 0.1 µM,0.0399
same,increase in dead-cell fraction,[4]; 0.3162 µM,0.0362
same,increase in dead-cell fraction,[4]; 1 µM,0.0582
same,increase in dead-cell fraction,[4]; 3.162 µM,0.0358
same,increase in dead-cell fraction,[4]; 10 µM,0.0879
same,increase in dead-cell fraction,[5]; 0.0003162 µM,-0.0013
same,increase in dead-cell fraction,[5]; 0.001 µM,0.0036
same,increase in dead-cell fraction,[5]; 0.003162 µM,0.0075
same,increase in dead-cell fraction,[5]; 0.01 µM,0.015
same,increase in dead-cell fraction,[5]; 0.03162 µM,0.0198
same,increase in dead-cell fraction,[5]; 0.1 µM,0.0318
same,increase in dead-cell fraction,[5]; 0.3162 µM,0.0437
same,increase in dead-cell fraction,[5]; 1 µM,0.0364
same,increase in dead-cell fraction,[5]; 3.162 µM,0.0469
same,GR value,THZ1 [6]; 0.0001 µM,1.08 GR
same,GR value,THZ1 [6]; 0.0003162 µM,1.06 GR
same,GR value,THZ1 [6]; 0.001 µM,0.867 GR
same,GR value,THZ1 [6]; 0.003162 µM,0.854 GR
same,GR value,THZ1 [6]; 0.01 µM,0.743 GR
same,GR value,THZ1 [6]; 0.03162 µM,0.0057 GR
same,GR value,THZ1 [6]; 0.1 µM,-0.515 GR
same,GR value,THZ1 [6]; 0.3162 µM,-0.579 GR
same,GR value,THZ1 [6]; 1 µM,-0.789 GR
same,GR value,Flavopiridol [7]; 0.0001 µM,1.04 GR
same,GR value,Flavopiridol [7]; 0.0003162 µM,0.989 GR
same,GR value,Flavopiridol [7]; 0.001 µM,0.844 GR
same,GR value,Flavopiridol [7]; 0.003162 µM,0.823 GR
same,GR value,Flavopiridol [7]; 0.01 µM,0.823 GR
same,GR value,Flavopiridol [7]; 0.03162 µM,0.9 GR
same,GR value,Flavopiridol [7]; 0.1 µM,0.641 GR
same,GR value,Flavopiridol [7]; 0.3162 µM,-0.0615 GR
same,GR value,Flavopiridol [7]; 1 µM,-0.656 GR
same,GR value,THZ531; 0.0001 µM,1.03 GR
same,GR value,THZ531; 0.0003162 µM,0.963 GR
same,GR value,THZ531; 0.001 µM,0.975 GR
same,GR value,THZ531; 0.003162 µM,0.961 GR
same,GR value,THZ531; 0.01 µM,1.07 GR
same,GR value,THZ531; 0.03162 µM,0.411 GR
same,GR value,THZ531; 0.1 µM,-0.26 GR
same,GR value,THZ531; 0.3162 µM,-0.481 GR
same,GR value,THZ531; 1 µM,-0.584 GR
same,GR value,[8]; 0.0003162 µM,1.05 GR
same,GR value,[8]; 0.001 µM,1.03 GR
same,GR value,[8]; 0.003162 µM,0.946 GR
same,GR value,[8]; 0.01 µM,0.845 GR
same,GR value,[8]; 0.03162 µM,0.697 GR
same,GR value,[8]; 0.1 µM,0.591 GR
same,GR value,[8]; 0.3162 µM,0.434 GR
same,GR value,[8]; 1 µM,0.48 GR
same,GR value,[8]; 3.162 µM,0.334 GR
